The source of these data is patent US5068233A, “Synergistic combination of azelastine and theophylline or azelastine and α-mimetics” (Asta Pharma Aktiengesellschaft, priority 1987, dated 1991).

The assay concerns isolated guinea pig ileum (histamine spasm). Kind of assay: histamine spasm test in isolated guinea pig ileum (Magnus), % inhibition of histamine spasm. The arrangement: antihistaminic activity (mean value), starting value / increase of antihistaminic activity (mean value): concentration or dose not given beside the values. The protocol: These trials were conducted in association with the histamine spasm test in isolated guinea pig ileum. Here, for example, the azelastine dosage (hydrochloride) is maintained constant and the dosage of theophylline or β-mimetic (for example reproterol) is changed and in each case intestinal spasm inhibition is determined as a % of uninhibited histamine spasm (Method of determining synergism according to Magnus).
Guinea pigs of both sexes having a mean weight of 400-600 g are stunned by a blow on the neck and exsanguinated. The lower part of the small intestine above the bottom 10 cm before the transition to the large intestine is dissected, flushed with cold Tyrode's solution and incubated in a refrigerator for 1 hour. 3-4 cm long sections are then cut and suspended in the immersion baths (Tyrode's solution^1) 37° C., carbogen gassing^2) under isotonic conditions, a tension of 2 g being applied. Following an adjustment time of 30 minutes the contraction in response to a standard spasmogen concentration of histamine (2×10^-7 mol/liter) is determined. […] The effects of the individual components and their combination are compared with one another.
1 Tyrode's solution: standardized, glucose-containing nutrient solution that has the same osmotic pressure as blood
2 Carbogen: gaseous mixture of 95% oxygen and 5% carbon dioxide.

Structures can show the parent of a compound that is named as a salt.

`CN1CCCC(n2nc(Cc3ccc(Cl)cc3)c3ccccc3c2=O)CC1` (centres unmarked) [azelastine]: for the setting “azelastine activity increased in the combination, partner not given”, the “increase of antihistaminic activity (mean value)” value (“increase” for short) is 26%. In addition, the “antihistaminic activity (mean value), starting value” (azelastine, mean value before increase) is reported as 36%.
Regarding `CN1CCCC(n2nc(Cc3ccc(Cl)cc3)c3ccccc3c2=O)CC1` (centres unmarked) [Azelastine.HCl], the “% inhibition (histamine 2 × 10^-10 mol/ml)” value (“% inhibition” for short) by setting is: (Table 1, Azelastine.HCl 0.001 μg/ml alone, group ****, N = 8) 46.3 ± 34.6%; (Table 1, Azelastine.HCl 0.001 μg/ml alone, group ***, N = 8) 9.4 ± 12.4%; (Table 1, Azelastine.HCl 0.001 μg/ml alone, group **, N = 4) 49.3 ± 1.9%; (Table 1, Azelastine.HCl 0.001 μg/ml alone, group *, N = 8) 38.9 ± 19.9%; (Table 2, Azelastine.HCl 0.001 μg/ml alone, group ***, N = 8) 45.9 ± 21.1%; (Table 2, Azelastine.HCl 0.001 μg/ml alone, group **, N = 8) 26.6 ± 15.1%. The “% inhibition” value (Table 2, Azelastine.HCl 0.001 μg/ml alone, group *, N = 8) came to 35.1 ± 25.7%.
On to `Cn1c(=O)c2c(ncn2CCCNCC(O)c2cc(O)cc(O)c2)n(C)c1=O` (centres unmarked) [Reproterol.HCl], for which the “% inhibition” value is 14.5 ± 16.6% (Table 2, Reproterol.HCl 0.02 μg/ml alone, group *, N = 8); 14.5 ± 18.1% (Table 2, Reproterol.HCl 0.04 μg/ml alone, group **, N = 8); 48.5 ± 21.3% (Table 2, Reproterol.HCl 0.06 μg/ml alone, group ***, N = 8).
Regarding `Cn1c(=O)c2[nH]cnc2n(C)c1=O` [Theophylline], the “% inhibition” value (Table 1, Theophylline 10 μg/ml alone, group *, N = 8) was 9.0 ± 12.8%; the “% inhibition” value (Table 1, Theophylline 20 μg/ml alone, group **, N = 4) amounted to 25.0 ± 15.1%; the “% inhibition” value (Table 1, Theophylline 40 μg/ml alone, group ***, N = 8) came to 39.6 ± 26.9%; the “% inhibition” value (Table 1, Theophylline 60 μg/ml alone, group ****, N = 8) was 20.6 ± 15.5%. In addition, the “antihistaminic activity (mean value), starting value” (theophylline, mean value before addition of azelastine) was 24%. The “increase” value (theophylline, upon addition of azelastine) stood at 38%.
With `Cn1c(=O)c2c(ncn2CCCNCC(O)c2cc(O)cc(O)c2)n(C)c1=O` (stereo not drawn) [reproterol, 7-{3[(β,3,5-trihydroxyphenethyl)-amino]propyl}-theophylline], the “antihistaminic activity (mean value), starting value” (reproterol, mean value before addition of azelastine) is on record as 26%. The “increase” value (reproterol, on addition of azelastine) is recorded as 38%.
